Laboratory results from patent publication US5260386A, “Synthesis of tagged polymers by post-polymerization (trans) amidation reaction” (Nalco Chemical Company, priority 1993, dated 1993).

Legend:
[1] = Survey of relative performance of fluorescent derivatizing agents against a cooling water background; type: physicochemical; conditions: for Fluorescent Maximum, emission (em) / Fluorescent Maximum, excitation (ex): 0.4 ppm (acid actives) aqueous solution; for Relative Intensity Value, Composition: 0.4 ppm (acid actives), 1,5-naphthalene disulfonic acid standard = 100%, at own fluorescence maximum; for Relative Performance: composition relative intensity / cooling water background relative intensity
From the text: In preferred embodiment the derivatizing agents are selected from those that a reasonably high "relative performance" for a given background. As noted above, a molecule is generally considered highly fluorescent when it has a fluorescent quantum efficiency, or fluorescent quantum yield, within the range of from about 0.1 to about 1.0, and a light absorbance molar extinction coefficient of at least 1,000. The magnitude of fluorescent signal, or relative fluorescence, is the product of the fluorescent quantum yield multiplied times the light absorbance molar extinction coefficient. […] The "relative performance", as this phrase is used herein, is the ratio of the relative fluorescence of a composition to the relative fluorescence of a given background medium. The fluorescence readings are typically measured at the excitation/emission wavelengths that represent major peaks for the given fluorescent tagged polymer. […] Some generalities may be considered. Industrial cooling waters generally have an overall higher fluorescent intensity than industrial boiler waters, and therefore a degree of polymer tagging that is reasonably high for use in boiler waters may not be sufficiently high for cooling waters, since of course the intensity of fluorescence must not be overwhelmed by the background fluorescence and the intensity of fluorescence is dependent on the concentration level of the fluorescent species. Similarly, a polymer that is to be used at high concentration levels in a given background medium need not be tagged to the same extent as one that is to be used at much lower concentration levels, other parameters being the same.
Thus in Example 38 below a survey of relative performance values of a number of fluorescent derivatizing agents against a cooling water background is given as representative of the use of such screening method for any other group of derivatizing agents and any other type of background.
The relative performances of a variety of fluorescent derivatizing agents were surveyed against a cooling water background as follows. An aqueous solution of each agent at a concentration level of 0.4 ppm (acid actives) and the fluorescent intensity of each agent at its fluorescence maximum was determined, in comparison to a fluorescence reference standard. The standard used was 1,5-naphthalene disulfonic acid, which is not a derivatizing agent for the purposes of the present invention because it has no amine functionality. This standard was also measured at its fluorescence maximum in an aqueous solution at a concentration of 0.4 ppm (acid actives) and its intensity was assigned a "relative intensity value" of 100%. The "relative intensity values" of each of the other compositions tested were assigned in relationship to the intensity of the standard. For instance, a composition that had twice the intensity of the standard (the standard and the composition each being measured at their own fluorescence maximums) would be given a relative intensity value of 200%. Then the relative intensity values of the various compositions were compared to that of the cooling water background at the fluorescent maximum (peak excitation/emission wavelengths) of the composition. The cooling water fluorescent intensity employed was the average relative intensity of ten representative cooling water formulations measured for combination of wavelengths of excitation and emission within the range required for this survey. The relative performance for each composition thus is the value determined by dividing the relative intensity value determined for the fluorescence of each composition by the relative intensity value of the background fluorescence of cooling water at the same combination of wavelengths. The identities of the various compositions surveyed and the values determined are set forth below in Table VII.

[2] = tested on: rats; conditions: cited from earlier work

Compound: 1-amino-3,6-naphthalene trisulfonic acid
- Fluorescent Maximum, emission (em) [1]: 500 nm
- Fluorescent Maximum, excitation (ex) [1]: 360 nm
- Relative Intensity Value, Composition [1]: 4%
- Relative Performance [1]: 0

Compound: O=S(=O)(O)c1cccc2c(S(=O)(=O)O)cccc12 [1,5-naphthalene disulfonic acid]
- Fluorescent Maximum, emission (em) [1]: 330 nm
- Fluorescent Maximum, excitation (ex) [1]: 290 nm
- Relative Intensity Value, Composition [1]: 100%
- Relative Performance [1]: 14

Compound: Nc1cc(S(=O)(=O)O)cc2cccc(S(=O)(=O)O)c12 [1-amino-3,8-naphthalene disulfonic acid]
- Fluorescent Maximum, emission (em) [1]: 480 nm
- Fluorescent Maximum, excitation (ex) [1]: 245 nm
- Relative Intensity Value, Composition [1]: 540%
- Relative Performance [1]: 25

Compound: Nc1ccc(S(=O)(=O)O)c2cccc(S(=O)(=O)O)c12 [1-amino-4,8-naphthalene disulfonic acid]
- Fluorescent Maximum, emission (em) [1]: 500 nm
- Fluorescent Maximum, excitation (ex) [1]: 255 nm
- Relative Intensity Value, Composition [1]: 122%
- Relative Performance [1]: 5

Compound: Nc1ccc(S(=O)(=O)O)c2ccccc12 [1-amino-4-naphthalene sulfonic acid]
- Fluorescent Maximum, emission (em) [1]: 420 nm
- Fluorescent Maximum, excitation (ex) [1]: 325 nm
- Relative Intensity Value, Composition [1]: 444%
- Relative Performance [1]: 24

Compound: Nc1cccc2c(S(=O)(=O)O)cccc12 [1-amino-5-naphthalene sulfonic acid]
- Fluorescent Maximum, emission (em) [1]: 480 nm
- Fluorescent Maximum, excitation (ex) [1]: 240 nm
- Relative Intensity Value, Composition [1]: 14%
- Relative Performance [1]: 0

Compound: Nc1cccc2cc(S(=O)(=O)O)ccc12 [1-amino-6-naphthalene sulfonic acid]
- Fluorescent Maximum, emission (em) [1]: 485 nm
- Fluorescent Maximum, excitation (ex) [1]: 245 nm
- Relative Intensity Value, Composition [1]: 74%
- Relative Performance [1]: 3

Compound: Nc1cccc2ccc(S(=O)(=O)O)cc12 [1-amino-7-naphthalene sulfonic acid]
- Fluorescent Maximum, emission (em) [1]: 480 nm
- Fluorescent Maximum, excitation (ex) [1]: 340 nm
- Relative Intensity Value, Composition [1]: 80%
- Relative Performance [1]: 7

Compound: Nc1cccc2cccc(S(=O)(=O)O)c12 [1-amino-8-naphthalene sulfonic acid]
- Relative Intensity Value, Composition [1]: 0%
- Detectable fluorescence in the survey (in words) ([1]; Table VII survey, 0.4 ppm): did not provide detectable fluorescence
- Relative Performance [1]: 0

Compound: Nc1ccc2c(S(=O)(=O)O)cccc2c1S(=O)(=O)O [2-amino-1,5-naphthalene disulfonic acid]
- Fluorescent Maximum, emission (em) [1]: 420 nm
- Fluorescent Maximum, excitation (ex) [1]: 250 nm
- Relative Intensity Value, Composition [1]: 486%
- Relative Performance [1]: 49

Compound: Nc1ccc2ccccc2c1S(=O)(=O)O [2-amino-1-naphthalene sulfonic acid]
- Fluorescent Maximum, emission (em) [1]: 485 nm
- Fluorescent Maximum, excitation (ex) [1]: 245 nm
- Relative Intensity Value, Composition [1]: 150%
- Relative Performance [1]: 7

Compound: Nc1cc2ccc(S(=O)(=O)O)cc2cc1S(=O)(=O)O [2-amino-3,6-naphthalene disulfonic acid]
- Fluorescent Maximum, emission (em) [1]: 440 nm
- Fluorescent Maximum, excitation (ex) [1]: 250 nm
- Relative Intensity Value, Composition [1]: 77%
- Relative Performance [1]: 8

Compound: Nc1cc(S(=O)(=O)O)c2cccc(S(=O)(=O)O)c2c1 [2-amino-4,8-naphthalene disulfonic acid]
- Fluorescent Maximum, emission (em) [1]: 440 nm
- Fluorescent Maximum, excitation (ex) [1]: 245 nm

Compound: Nc1ccc2c(S(=O)(=O)O)cc(S(=O)(=O)O)cc2c1 [2-amino-5,7-naphthalene disulfonic acid]
- Fluorescent Maximum, emission (em) [1]: 460 nm
- Fluorescent Maximum, excitation (ex) [1]: 250 nm
- Relative Intensity Value, Composition [1]: 776%
- Relative Performance [1]: 97
- Reported LD50 (oral/rats) [2]: 2.0 grams/kilogram

Compound: Cc1ccc(N)c(S(=O)(=O)O)c1 [2-amino-5-methylbenzene sulfonic acid]
- Fluorescent Maximum, emission (em) [1]: 370 nm
- Fluorescent Maximum, excitation (ex) [1]: 240 nm
- Relative Intensity Value, Composition [1]: 19%
- Relative Performance [1]: 3

Compound: Nc1ccc2c(S(=O)(=O)O)cccc2c1 [2-amino-5-naphthalene sulfonic acid]
- Fluorescent Maximum, emission (em) [1]: 440 nm
- Fluorescent Maximum, excitation (ex) [1]: 245 nm
- Relative Intensity Value, Composition [1]: 750%
- Relative Performance [1]: 82

Compound: Nc1ccc2cc(S(=O)(=O)O)cc(S(=O)(=O)O)c2c1 [2-amino-6,8-naphthalene disulfonic acid]
- Fluorescent Maximum, emission (em) [1]: 445 nm
- Fluorescent Maximum, excitation (ex) [1]: 250 nm
- Relative Intensity Value, Composition [1]: 69%
- Relative Performance [1]: 7
- Reported LD50 (oral/rats) [2]: > 5.0 grams/kilogram

Compound: Nc1ccc2cc(S(=O)(=O)O)ccc2c1 [2-amino-6-naphthalene sulfonic acid]
- Fluorescent Maximum, emission (em) [1]: 420 nm
- Fluorescent Maximum, excitation (ex) [1]: 245 nm
- Relative Intensity Value, Composition [1]: 760%
- Relative Performance [1]: 78
- Reported LD50 (oral/rats) [2]: > 5.0 grams/kilogram

Compound: Nc1ccc2ccc(S(=O)(=O)O)cc2c1 [2-amino-7-naphthalene sulfonic acid]
- Fluorescent Maximum, emission (em) [1]: 440 nm
- Fluorescent Maximum, excitation (ex) [1]: 245 nm
- Relative Intensity Value, Composition [1]: 446%
- Relative Performance [1]: 48

Compound: Nc1ccc2cccc(S(=O)(=O)O)c2c1 [2-amino-8-naphthalene sulfonic acid]
- Fluorescent Maximum, emission (em) [1]: 440 nm
- Fluorescent Maximum, excitation (ex) [1]: 240 nm
- Relative Intensity Value, Composition [1]: 638%
- Relative Performance [1]: 75

Compound: Nc1ccccc1C(=O)O [2-amino-benzoic acid]
- Fluorescent Maximum, emission (em) [1]: 400 nm
- Fluorescent Maximum, excitation (ex) [1]: 240 nm
- Relative Intensity Value, Composition [1]: 110%
- Relative Performance [1]: 13

Compound: Nc1cccc(C(=O)O)c1 [3-amino-benzoic acid]
- Fluorescent Maximum, emission (em) [1]: 370 nm
- Fluorescent Maximum, excitation (ex) [1]: 240 nm
- Relative Intensity Value, Composition [1]: 21%
- Relative Performance [1]: 3

Compound: Nc1ccc(S(=O)(=O)O)cc1 [4-amino-benzene sulfonic acid]
- Fluorescent Maximum, emission (em) [1]: 340 nm
- Fluorescent Maximum, excitation (ex) [1]: 250 nm
- Relative Intensity Value, Composition [1]: 26%
- Relative Performance [1]: 8

Compound: Nc1ccc(C(=O)O)cc1 [4-amino-benzoic acid]
- Fluorescent Maximum, emission (em) [1]: 340 nm
- Fluorescent Maximum, excitation (ex) [1]: 270 nm
- Relative Intensity Value, Composition [1]: 82%
- Relative Performance [1]: 13

Compound: Nc1cc(S(=O)(=O)O)ccc1S(=O)(=O)O [amino-2,5-benzene disulfonic acid]
- Fluorescent Maximum, emission (em) [1]: 380 nm
- Fluorescent Maximum, excitation (ex) [1]: 310 nm
- Relative Intensity Value, Composition [1]: 54%
- Relative Performance [1]: 4

Compound: Nc1ccccc1 [aniline]
- Fluorescent Maximum, emission (em) [1]: 340 nm
- Fluorescent Maximum, excitation (ex) [1]: 230 nm
- Relative Intensity Value, Composition [1]: 4%
- Relative Performance [1]: 1
- Reported LD50 (oral/rats) [2]: 0.25 grams/kilogram
